Holding throughout (assay): relative viability (nuclei count vs DMSO), 5 days (fraction); higher = more cells survive
Compound in the experiment “kb NB 142-70 + Lapatinib”: C1CSC2=C(C(=O)N1)SC3=C2C=C(C=C3)O [kb NB 142-70] + CS(=O)(=O)CCNCc1ccc(-c2ccc3ncnc(Nc4ccc(OCc5cccc(F)c5)c(Cl)c4)c3c2)o1 [Lapatinib] (partner 2 µM)
In short, it runs like this: (§1)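 Nuclei were stained with Hoechst during a one-step fixation (final 0.05% Triton X-100, 1% formaldehyde, 1 ug/ml Hoechst) carried out 5 days after dosing, then counted on 4× images. The cells, lung cancer lines in 1536-well plates, had been dosed by pin tool the day after seeding with one drug alone or a fixed anchor-drug dose plus five library-drug doses (not always all listed) in √10 steps. Relative viability is the nuclei count in treated wells divided by that in vehicle wells, and each value is the median of duplicate plates.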

Compound in experiment [1]: NCC(=O)Nc1ccc(-n2nc(C(F)(F)F)cc2-c2ccc3c(ccc4ccccc43)c2)cc1 + N=C(N)NC(=N)NCCc1ccccc1 [Phenformin] (partner 250 µM)
The gist of the method: as §1

Compound in experiment [2]: NCC(=O)Nc1ccc(-n2nc(C(F)(F)F)cc2-c2ccc3c(ccc4ccccc43)c2)cc1 + CC(=O)c1c(C)c2cnc(Nc3ccc(N4CCNCC4)cn3)nc2n(C2CCCC2)c1=O [Palbociclib] (partner 0.5 µM)
The gist of the method:
as §1

Compound in experiment [3]: NCC(=O)Nc1ccc(-n2nc(C(F)(F)F)cc2-c2ccc3c(ccc4ccccc43)c2)cc1 + Cc1nc(Nc2ncc(C(=O)Nc3c(C)cccc3Cl)s2)cc(N2CCN(CCO)CC2)n1 [Dasatinib] (partner 0.075 µM)
In short, it runs like this: as §1

With NCI-H1299, the relative viability with kb NB 142-70 + Lapatinib (first compound 0.1 µM) is 0.919; with kb NB 142-70 + Lapatinib (first compound 1 µM), 1.02; with kb NB 142-70 + Lapatinib (first compound 3.162 µM), 1.
With LCLC-103H, the relative viability in experiment [1] (first compound 0.02 µM) amounted to 0.344; in experiment [1] (first compound 0.06325 µM) it was 0.331; in experiment [1] (first compound 0.2 µM) it was 0.332; in experiment [1] (first compound 0.6325 µM) it was 0.327; in experiment [1] (first compound 2 µM), 0.315; in experiment [2] (first compound 0.02 µM) it was 0.41. Besides, the relative viability was 0.503 in experiment [2] (first compound 0.06325 µM); 0.483 in experiment [2] (first compound 0.2 µM); 0.413 in experiment [2] (first compound 0.6325 µM); 0.504 in experiment [2] (first compound 2 µM); 0.439 in experiment [3] (first compound 0.02 µM); 0.458 in experiment [3] (first compound 0.06325 µM). The relative viability turned out to be 0.485 in experiment [3] (first compound 0.2 µM), 0.465 in experiment [3] (first compound 0.6325 µM) and 0.433 in experiment [3] (first compound 2 µM).
With ChaGo-K-1, the relative viability came to 0.438 in experiment [1] (first compound 0.02 µM); 0.495 in experiment [1] (first compound 0.06325 µM); 0.443 in experiment [1] (first compound 0.2 µM); 0.522 in experiment [1] (first compound 0.6325 µM); 0.519 in experiment [1] (first compound 2 µM); 0.919 in experiment [2] (first compound 0.02 µM). For the same cell line, the relative viability in experiment [2] (first compound 0.06325 µM) turned out to be 0.929; in experiment [2] (first compound 0.2 µM), 0.933; in experiment [2] (first compound 0.6325 µM), 0.973; in experiment [2] (first compound 2 µM), 0.917; in experiment [3] (first compound 0.02 µM) it was 0.53; in experiment [3] (first compound 0.06325 µM) it was 0.604. The relative viability was 0.47 in experiment [3] (first compound 0.2 µM), 0.646 in experiment [3] (first compound 0.6325 µM) and 0.579 in experiment [3] (first compound 2 µM).
As for SW 900, the relative viability in experiment [1] (first compound 0.06325 µM) is 0.729; in experiment [1] (first compound 0.2 µM) it was 0.599; in experiment [1] (first compound 0.6325 µM), 0.587; in experiment [1] (first compound 2 µM), 0.661; in experiment [2] (first compound 0.02 µM), 0.513; in experiment [2] (first compound 0.06325 µM), 0.661. The relative viability in experiment [2] (first compound 0.2 µM) is 0.534; in experiment [2] (first compound 0.6325 µM) it was 0.535; in experiment [2] (first compound 2 µM), 0.641; in experiment [3] (first compound 0.06325 µM) it was 0.69; in experiment [3] (first compound 0.2 µM), 0.852; in experiment [3] (first compound 0.6325 µM) it was 0.515. Also, the relative viability in experiment [3] (first compound 2 µM) was 0.592.
For NCI-H596, the relative viability with kb NB 142-70 + Lapatinib (first compound 0.1 µM) was 1.02; in the experiment with kb NB 142-70 + Lapatinib (first compound 1 µM), 0.931; with kb NB 142-70 + Lapatinib (first compound 3.162 µM), 0.884; in experiment [1] (first compound 0.02 µM) it was 0.72; in experiment [1] (first compound 0.06325 µM), 0.877; in experiment [1] (first compound 0.2 µM), 0.841. The relative viability in experiment [1] (first compound 0.6325 µM) is 0.721; in experiment [1] (first compound 2 µM), 0.728; in experiment [3] (first compound 0.02 µM), 0.626; in experiment [3] (first compound 0.06325 µM), 0.66; in experiment [3] (first compound 0.2 µM), 0.591; in experiment [3] (first compound 0.6325 µM), 0.6. Further, the relative viability in experiment [3] (first compound 2 µM) is 0.652.
NCI-H1563: the relative viability with kb NB 142-70 + Lapatinib (first compound 0.1 µM) came to 0.969; with kb NB 142-70 + Lapatinib (first compound 1 µM), 0.889; with kb NB 142-70 + Lapatinib (first compound 3.162 µM), 0.944; in experiment [1] (first compound 0.02 µM) it was 0.606; in experiment [1] (first compound 0.06325 µM), 0.664; in experiment [1] (first compound 0.2 µM), 0.658. Moreover, the relative viability in experiment [1] (first compound 0.6325 µM) was found to be 0.633; in experiment [1] (first compound 2 µM) it was 0.712; in experiment [3] (first compound 0.02 µM), 0.47; in experiment [3] (first compound 0.06325 µM) it was 0.479; in experiment [3] (first compound 0.2 µM), 0.477; in experiment [3] (first compound 0.6325 µM), 0.469. In experiment [3] (first compound 2 µM), the relative viability stood at 0.525.
Turning to A549, the relative viability with kb NB 142-70 + Lapatinib (first compound 0.1 µM) turned out to be 0.979; in the experiment with kb NB 142-70 + Lapatinib (first compound 1 µM), 0.928; with kb NB 142-70 + Lapatinib (first compound 3.162 µM), 0.428; in experiment [1] (first compound 0.02 µM), 0.0913; in experiment [1] (first compound 0.06325 µM) it was 0.168; in experiment [1] (first compound 0.2 µM), 0.0781. Moreover, the values for the relative viability in experiment [1] (first compound 0.6325 µM) and in experiment [1] (first compound 2 µM) were 0.198 and 0.17, respectively.
On to NCI-H2342, for which the relative viability in experiment [1] (first compound 0.02 µM) came to 0.685; in experiment [1] (first compound 0.06325 µM), 0.582; in experiment [1] (first compound 0.2 µM), 0.733; in experiment [1] (first compound 0.6325 µM) it was 0.515; in experiment [1] (first compound 2 µM), 0.537; in experiment [2] (first compound 0.02 µM), 0.627. Moreover, the relative viability was found to be 0.552 in experiment [2] (first compound 0.06325 µM); 0.479 in experiment [2] (first compound 0.2 µM); 0.494 in experiment [2] (first compound 0.6325 µM); 0.523 in experiment [2] (first compound 2 µM); 0.313 in experiment [3] (first compound 0.02 µM); 0.331 in experiment [3] (first compound 0.06325 µM). The figures for the relative viability in experiment [3] (first compound 0.2 µM), in experiment [3] (first compound 0.6325 µM) and in experiment [3] (first compound 2 µM) were 0.312, 0.285 and 0.305, respectively.
For the cell line NCI-H1623, the relative viability is 0.604 in experiment [1] (first compound 0.02 µM); 0.671 in experiment [1] (first compound 0.06325 µM); 0.6 in experiment [1] (first compound 0.2 µM); 0.577 in experiment [1] (first compound 0.6325 µM); 0.555 in experiment [1] (first compound 2 µM); 0.544 in experiment [3] (first compound 0.02 µM). The relative viability in experiment [3] (first compound 0.06325 µM) was determined as 0.676; in experiment [3] (first compound 0.2 µM), 0.531; in experiment [3] (first compound 0.6325 µM), 0.488; in experiment [3] (first compound 2 µM), 0.528.
For NCI-H522, the relative viability in experiment [1] (first compound 0.06325 µM) came to 0.66; in experiment [1] (first compound 0.2 µM) it was 0.585; in experiment [1] (first compound 0.6325 µM), 0.664; in experiment [1] (first compound 2 µM), 0.651; in experiment [2] (first compound 0.02 µM), 0.844; in experiment [2] (first compound 0.06325 µM) it was 0.996. Further, the relative viability came out at 0.998 in experiment [2] (first compound 0.2 µM); 0.934 in experiment [2] (first compound 0.6325 µM); 0.992 in experiment [2] (first compound 2 µM); 0.831 in experiment [3] (first compound 0.06325 µM); 0.874 in experiment [3] (first compound 0.2 µM); 0.854 in experiment [3] (first compound 0.6325 µM). In experiment [3] (first compound 2 µM), the relative viability came out at 0.921.
Regarding IA-LM, the values for the relative viability with kb NB 142-70 + Lapatinib (first compound 0.1 µM), in the experiment with kb NB 142-70 + Lapatinib (first compound 1 µM) and in the experiment with kb NB 142-70 + Lapatinib (first compound 3.162 µM) were 0.771, 0.95 and 0.787, respectively.
Regarding EBC-1, the relative viability was found to be 0.233 with kb NB 142-70 + Lapatinib (first compound 0.1 µM), 0.211 with kb NB 142-70 + Lapatinib (first compound 1 µM) and 0.217 with kb NB 142-70 + Lapatinib (first compound 3.162 µM).

Values taken from the supplement of paper PMC10307832.
